Patent US7186672B2, “Fungicidal mixtures” (BASF Aktiengesellschaft, priority 2001, dated 2007)

Test system: Erysiphe [syn. Blumeria] graminis forma specialis tritici
Experiment: Protective activity against mildew of wheat (potted wheat seedlings, greenhouse)
Format: in vivo
Details: wheat cv. Kanzler, 7 days
Method: The active compounds, separately or together, were formulated as a 10% emulsion in a mixture of 63% by weight of cyclohexanone and 27% by weight of emulsifier, and diluted with water to the desired concentration.
Evaluation was carried out by determining the infected leaf areas in percent. These percentages were converted into efficacies. The efficacy (W) was calculated as follows using Abbot's formula: […] • α corresponds to the fungal infection of the treated plants in % and • β corresponds to the fungal infection of the untreated (control) plants in %
An efficacy of 0 means that the infection level of the treated plants corresponds to that of the untreated control plants; an efficacy of 100 means that the treated plants were not infected.
The expected efficacies of the mixtures of the active compounds were determined using Colby's formula [R. S. Colby, Weeds 15, 20–22 (1967)] and compared with the observed efficacies. Colby's formula: E=x+y−x·y/100 • E expected efficacy, expressed in % of the untreated control, when using the mixture of the active compounds A and B at the concentrations a and b • x efficacy, expressed in % of the untreated control, when using active compound A at a concentration of a • y efficacy, expressed in % of the untreated control, when using active compound B at a concentration of b.
Protective Activity Against Mildew of Wheat Caused by Erysiphe [syn. Blumeria] graminis forma specialis tritici
Leaves of potted wheat seedlings of the cultivar “Kanzler” were sprayed to runoff point with an aqueous preparation of active compound which had been prepared from a stock solution made of 10% of active compound, 85% of cyclohexanone and 5% of emulsifier and, 24 hours after the spray coating had dried on, dusted with spores of mildew of wheat (Erysiphe [syn. Blumeria] graminis forma specialis. tritici). The test plants were then placed in a greenhouse at 20–24° C. and 60–90% relative atmospheric humidity. After 7 days, the extent of the mildew development was determined visually in % infection of the total leaf area.
The visually determined percentages of infected leaf area were converted into efficacies as % of the untreated control. An efficacy of 0 means that the infection level of the treated plants corresponds to that of the untreated control; an efficacy of 100 means 0% infection. The expected efficacies of the combinations of active compounds were determined using Colby's formula (Colby, S. R. (Calculating synergistic and antagonistic responses of herbicide Combinations”, Weeds, 15, pp. 20–22, 1967) and compared with the observed efficacies.

[1] = 0.6 ppm active compound in the spray liquor
[2] = 1.25 ppm active compound in the spray liquor

Compound | Efficacy in % of the untreated control [1] [%] | Efficacy in % of the untreated control [2] [%] | Efficacy in % of the untreated control (2.5 ppm active compound in the spray liquor) [%] | Efficacy in % of the untreated control (0.3 ppm active compound in the spray liquor) [%]
pyraclostrobin [II-6] | 36 | 47 | 57 | 
Fc1ccc([C@]2(Cn3cncn3)O[C@H]2c2ccccc2Cl)cc1 (racemic) [III.a, (2RS,3SR)-1-[3-(2-chlorophenyl)-2-(4-fluorophenyl)-oxiran-2-ylmethyl]-1H-1,2,4-triazole] | 4 | 4 |  | 4
